Data from paper PMC7607875, “Enhancing the antibacterial activity of antimicrobial peptide PMAP-37(F34-R) by cholesterol modification” (BMC Veterinary Research, 2020).
In brackets after ≈: the same amount, converted by molar mass. Marks after values point to notes of the source that are not given here. Residues, ends and D or L forms follow the SMILES beside them. No end group written: not given here. *: point of attachment. Cholesteryloxycarbonyl = CC(C)CCC[C@@H](C)[C@H]1CC[C@H]2[C@@H]3CC=C4C[C@@H](OC(=O)*)CC[C@]4(C)[C@H]3CC[C@]12C

Legend:
[1] = tested on: P. aeruginosa GIM1.551; assay: Inhibition zone assay (Kirby-Bauer disk diffusion); type: cell-based; design: key: +, peptide have antibacterial activity; settings: disk with 10 μg, 37 °C, 18 h
Method: (§1) The antibacterial activity of Chol-37(F34-R) was detected using the Kirby-Bauer diffusion method. Four bacterial strains were used as experimental strains: L. monocytogenes CICC21634 cultured with BHI, P. aeruginosa GIM1.551 cultured with TSB, S. aureus ATCC25923, and S. typhimurium SL1344 cultured with LB medium. Briefly, the bacterial cells were cultured for 12 h at 37 °C in appropriate culture media, and the bacterial cell suspension was spread on the corresponding solid medium. Then, the disks containing 10 μg peptide or ceftiofur sodium were attached to the solid medium and incubated at 37 °C for 18 h. Lastly, the diameter of the inhibition zone was measured.

[2] = tested on: L. monocytogenes CICC21634; assay: Inhibition zone assay (Kirby-Bauer disk diffusion); type: cell-based; design: key: +, peptide have antibacterial activity; settings: disk with 10 μg, 37 °C, 18 h
Method: as §1

[3] = tested on: S. typhimurium SL1344; assay: Inhibition zone assay (Kirby-Bauer disk diffusion); type: cell-based; design: key: +, peptide have antibacterial activity; settings: disk with 10 μg, 37 °C, 18 h
Method: as §1

[4] = tested on: S. aureus ATCC25923; assay: Inhibition zone assay (Kirby-Bauer disk diffusion); type: cell-based; design: key: +, peptide have antibacterial activity; settings: disk with 10 μg, 37 °C, 18 h
Method: as §1

[5] = tested on: P. aeruginosa GIM1.551; assay: P. aeruginosa GIM1.551-infected mouse abscess model; type: in vivo; settings: P. aeruginosa GIM1.551 model; 10 μL of 1 μg/μL once per day for 3 days, day 3; n = 5
Source text: (§2) The abscess model of mouse was built against S. aureus ATCC25923 or P. aeruginosa GIM1.551 as previously described with minor modifications. Twelve groups of 60 mice (5 mice per group) were randomly divided into PMAP-37, PMAP-37(F34-R), Chol-37(F34-R), ampicillin sodium (against S. aureus ATCC25923-infected mouse abscess model), benzylpenicillin potassium (against P. aeruginosa GIM1.551-infected mouse abscess model), PBS, and blank groups. The fur on the back of each mouse was shaved. Bacterial suspensions (1 × 10^8 CFU/mL, 50 μL) were injected into the right side of the dorsum underneath the thin skeletal muscle. After 1 h of inoculation, the infected areas were directly injected with PMAP-37, (10 μL, 1 μg/μL), PMAP-37(F34-R) (10 μL, 1 μg/μL), Chol-37(F34-R) (10 μL, 1 μg/μL), antibiotic (ampicillin sodium 10 μL, 1 μg/μL or benzylpenicillin potassium 10 μL, 1 μg/μL), or PBS (10 μL). The treatment program was conducted once per day for 3 days. Mice in the blank group were not challenged and treated. Three days after treatment, mice were euthanized with 120 mg/kg i.p. sodium pentobarbital, and their skin abscesses were harvested and homogenized as described above to assess the bacterial burden.

[6] = tested on: P. aeruginosa GIM1.551; assay: P. aeruginosa GIM1.551-infected mouse knife injury model; type: in vivo; settings: topical 10 μL of 1 μg/μL once per day for 7 days, day 7
Method: The P. aeruginosa strain GIM1.551 was used to build knife wound model of mouse as described elsewhere with minor modifications. A total of 30 mice were randomly divided into six groups. Briefly, the fur on the back of each mouse was removed by shaving. A 1.5 cm linear knife wound was made on the back of each mouse and infected by direct seeding with bacterial suspensions (1 × 10^8 CFU/mL, 50 μL). One day postinfection, the wounds were administered with PMAP-37 (10 μL, 1 μg/μL), PMAP-37(F34-R) (10 μL, 1 μg/μL), Chol-37(F34-R) (10 μL, 1 μg/μL), ampicillin sodium (10 μL, 1 μg/μL), or PBS (10 μL), and the treatment program was performed once per day for 7 days. The mice with no infection and treatment were used as blank control. The wounds of mice were wrapped in gauze bandages that were changed every day. Seven days after treatment, mice were euthanized with 120 mg/kg intraperitoneal (i.p.) sodium pentobarbital and their wound tissues were collected. The wound tissues were homogenized with a basic homogenizer. Following a 10-fold serial dilution in PBS, the homogenates were spread on TSB agar plates. The bacterial burden was determined after incubation at 37 °C for 18 h.

[7] = tested on: P. aeruginosa GIM1.551; type: cell-based; settings: GIM1.551, 12 h
Method: (§3) The MIC values of Chol-37(F34-R) were determined using the microdilution method of the Clinical and Laboratory Standards Institute. Antibacterial intensity was tested in MHB against S. aureus ATCC25923, L. monocytogenes CICC21634, S. typhimurium SL1344, and P. aeruginosa GIM1.551. The tested strains were cultured for 12 h at 37 °C. Then, the bacterial inoculum concentration was adjusted to 1 × 10^6 CFU/mL. Twofold serial dilutions covering different concentrations from 0.0039 to 256 μg/mL for each peptide were added to media containing cultures of the tested strains in 96-well plates, which were incubated at 37 °C for 18 h. The MIC values were determined by evaluating the OD600nm of the cultures.
(§4) The effects of salt ion and serum on the antibacterial activities of Chol-37(F34-R) were investigated by MIC assay. S. aureus ATCC25923 and P. aeruginosa GIM1.551 were used as the tested strains. The MIC values were determined at recommended doses of NaCl (8.766 g/L), CaCl2 (0.039 g/L), and fetal bovine serum (20%).
(§5) The effects of salt ion and serum on antibacterial activities of PMAP-37(F34-R)-C were investigated by MIC assay. a, The control MIC values were determined in the absence of physiological salts and serum. b, c, and d, The final concentrations of NaCl, CaCl2, and serum were 8.766 g/L, 0.039 g/L, and 20% (v/v), respectively.

[8] = tested on: S. aureus ATCC25923; type: cell-based; settings: ATCC25923, 12 h
Method: as §3, §4, §5

[9] = tested on: P. aeruginosa GIM1.551; assay: MIC assay, microdilution method; type: cell-based
Method: as §3

[10] = tested on: L. monocytogenes CICC21634; assay: MIC assay, microdilution method; type: cell-based
Method: as §3

[11] = tested on: S. aureus ATCC25923; assay: MIC assay, microdilution method; type: cell-based
Method: as §3

[12] = tested on: NIH 3 T3 cells; assay: Cytotoxicity assay (MTT); settings: 24 h, at a concentration of 1280 μg/mL, n = 5
Method: NIH 3 T3 cells were seeded in a 96-well with a density of 1× 10^4 cells per well and incubated in 37 °C for 24 h. Afterward, the cell medium was replaced by fresh DMEM containing various concentrations of peptides (2.5–1280 μg/mL). After 24 h incubation, 20 μL MTT agent (5 mg/mL) was added to each well and incubated for 4 h. Then, the supernatant of each well was replaced with 150 μL DMSO. The absorbance was measured by a microplate reader (FlexStation III) at 570 nm.

[13] = tested on: mouse erythrocytes; assay: Hemolytic assay; settings: at 1280 μg/mL, 1 h, OD570nm, n = 5
Method: Mouse erythrocytes were diluted to a final suspension concentration of 8% (v/v). Then, 100 μL erythrocyte suspension was incubated with 100 μL peptides at different concentrations ranging from 2.5 to 1280 μg/mL. PBS and 0.2% Triton X-100 were used as negative and positive controls, respectively. After 1 h of incubation, the tested samples were centrifuged for 5 min at 1000 g. Lastly, the absorbance of the supernatant of tested samples was measured at 570 nm. The percentage of hemolytic was obtained using the following formula: Hemolysis rate = [OD570nm (peptides) − OD570nm (PBS)]/[OD570nm (Triton X − 100) − OD570nm (PBS)] × 100 % .

[14] = tested on: S. typhimurium SL1344; type: cell-based; settings: SL1344, 18 h
Method: as §3

[15] = tested on: S. aureus ATCC25923; assay: S. aureus ATCC25923-infected mouse abscess model; type: in vivo; settings: 10 μL of 1 μg/μL once per day for 3 days, day 3, n = 5
Source text: as §2

[16] = tested on: S. aureus ATCC25923; assay: S. aureus ATCC25923-infected mouse peritonitis model; type: in vivo; settings: i.p. 20 μL of 1 μg/μL once per day for 3 days
Method: The dissemination of S. aureus ATCC25923 to target organs was assessed in the peritonitis model. The assessment was performed on the basis of the method described previously with minor modifications. Six groups of 60 mice (10 mice per group) were randomly divided into PMAP-37, PMAP-37(F34-R), Chol-37(F34-R), ampicillin sodium, PBS, and blanks group. Bacterial suspension (1 × 10^8 CFU/mL, 100 μL) was intraperitoneally injected into mice. After 2 h inoculation, PMAP-37 (20 μL, 1 μg/μL), PMAP-37(F34-R) (20 μL, 1 μg/μL), Chol-37(F34-R) (20 μL, 1 μg/μL), ampicillin sodium (20 μL, 1 μg/μL), or PBS (20 μL) was intraperitoneally injected into the mice, and the treatment program was implemented once per day for 3 days. Mice in the blank group were not challenged and treated. […] Aliquots of diluted homogenized tissues were spread on LB agar, on which the bacterial burden was determined for analysis. […] Pathological changes were scored as follows: a score of 1 indicated no pathology, 2 indicated perivascular infiltrates, 3 indicated perivascular and interstitial infiltrates affecting < 20% of the section, 4 indicated perivascular and interstitial infiltrates affecting 20 to 50% of the section, and 5 indicated perivascular and interstitial infiltrates affecting > 50% of the section.

Compound: CO/N=C(\C(=O)N[C@@H]1C(=O)N2C(C(=O)[O-])=C(CSC(=O)c3ccco3)CS[C@H]12)c1csc(N)n1.[Na+] [ceftiofur sodium]
- in vitro antibacterial activity (disk diffusion) [1]: +
- in vitro antibacterial activity (disk diffusion) [2]: +
- in vitro antibacterial activity (disk diffusion) [3]: +
- in vitro antibacterial activity (disk diffusion) [4]: +

Compound: CC1(C)S[C@@H]2[C@H](NC(=O)[C@H](N)c3ccccc3)C(=O)N2[C@H]1C(=O)O [ampicillin sodium]
- bacterial load in the abscess [5]: reduced bacterial load in the abscess
- wound size vs PBS group [6]: smaller wound sizes than that of the PBS group

Compound: CC[C@H](C)[C@H](NC(=O)[C@H](CCCNC(=N)N)NC(=O)[C@H](CCC(=O)O)NC(=O)[C@@H](NC(=O)[C@H](CCCCN)NC(=O)[C@H](CCC(=O)O)NC(=O)CNC(=O)[C@H](CC(C)C)NC(=O)[C@H](CCCNC(=N)N)NC(=O)[C@H](CCCNC(=N)N)NC(=O)CNC(=O)[C@H](CCCNC(=N)N)NC(=O)[C@H](CC(=O)O)NC(=O)[C@H](CO)NC(=O)[C@H](CC(C)C)NC(=O)[C@H](Cc1ccccc1)NC(=O)[C@H](CC(=O)O)NC(=O)[C@H](CCCNC(=N)N)NC(=O)[C@H](CC(C)C)NC(=O)[C@H](CCCNC(=N)N)NC(=O)[C@H](CO)NC(=O)[C@H](CC(C)C)NC(=O)[C@H](CC(C)C)NC(=O)CNC(=O)O[C@H]1CC[C@@]2(C)C(=CC[C@H]3[C@@H]4CC[C@H]([C@H](C)CCCC(C)C)[C@@]4(C)CC[C@@H]32)C1)[C@@H](C)CC)C(=O)NCC(=O)N[C@@H](CCC(N)=O)C(=O)N[C@@H](CCCCN)C(=O)N[C@H](C(=O)N[C@@H](CCCCN)C(=O)N[C@@H](CC(=O)O)C(=O)N[C@@H](CC(C)C)C(=O)N[C@@H](CO)C(=O)N[C@@H](CCC(=O)O)C(=O)N[C@@H](CCCNC(=N)N)C(=O)N[C@@H](Cc1ccccc1)C(=O)N[C@@H](CCC(N)=O)C(=O)N[C@@H](CO)C(=O)O)[C@@H](C)CC [Chol-37(F34-R)] (Cholesteryloxycarbonyl-GLLSRLRDFLSDRGRRLGEKIERIGQKIKDLSERFQS-OH)
- MIC, CaCl2 [7]: 0.5 µg/mL (≈ 0.104 µM)
- MIC, Fetal bovine serum [7]: 0.5 µg/mL (≈ 0.104 µM)
- MIC, NaCl [7]: 0.5 µg/mL (≈ 0.104 µM)
- MIC, control [7]: 0.5 µg/mL (≈ 0.104 µM)
- MIC, CaCl2 [8]: 0.0078 µg/mL (≈ 0.00163 µM)
- MIC, Fetal bovine serum [8]: 0.0078 µg/mL (≈ 0.00163 µM)
- MIC, NaCl [8]: 0.0078 µg/mL (≈ 0.00163 µM)
- MIC, control [8]: 0.0078 µg/mL (≈ 0.00163 µM)
- MIC ([9]; P. aeruginosa GIM1.551, MHB, 1 × 10^6 CFU/mL, 37 °C, 18 h, OD600nm, three independent experiments performed in triplicate): 0.5** μg/mL
- MIC ([10]; L. monocytogenes CICC21634, MHB, 1 × 10^6 CFU/mL, 37 °C, 18 h, OD600nm, three independent experiments performed in triplicate): 0.5** μg/mL
- MIC ([11]; S. aureus ATCC25923, MHB, 1 × 10^6 CFU/mL, 37 °C, 18 h, OD600nm, three independent experiments performed in triplicate): 0.0078** μg/mL
- cell survival rate [12]: over 80%
- hemolysis rate [13]: less than 5%

Compound: GLLSRLRDFLSDRGRRLGEKIERIGQKIKDLSERFQS [PMAP-37(F34-R)]
- MIC, CaCl2 [7]: 1 µg/mL
- MIC, Fetal bovine serum [7]: 1 µg/mL
- MIC, NaCl [7]: 1 µg/mL
- MIC, control [7]: 1 µg/mL
- MIC, CaCl2 [8]: 0.0156 µg/mL
- MIC, Fetal bovine serum [8]: 0.0156 µg/mL
- MIC, NaCl [8]: 0.0156 µg/mL
- MIC, control [8]: 0.0156 µg/mL
- MIC [14]: 1** μg/mL
- MIC ([9]; GIM1.551, 18 h): 1* μg/mL
- MIC ([10]; CICC21634, 18 h): 2* μg/mL
- MIC ([11]; ATCC25923, 18 h): 0.0156* μg/mL

Compound: CC1(C)S[C@@H]2[C@H](NC(=O)Cc3ccccc3)C(=O)N2[C@H]1C(=O)O [benzylpenicillin potassium]
- bacterial load in the abscess [15]: reduced bacterial load in the abscess
- tissue damage of liver and spleen (histopathology) [16]: eliminated most of the damaged tissues
- bacterial load in the liver and spleen ([16]; n = 5): reduced the bacterial load

Compound: GLLSRLRDFLSDRGRRLGEKIERIGQKIKDLSEFFQS [PMAP-37]
- MIC, CaCl2 [7]: 2 µg/mL
- MIC, Fetal bovine serum [7]: 2 µg/mL
- MIC, NaCl [7]: 2 µg/mL
- MIC, control [7]: 2 µg/mL
- MIC, CaCl2 [8]: 0.0313 µg/mL
- MIC, Fetal bovine serum [8]: 0.0313 µg/mL
- MIC, NaCl [8]: 0.0313 µg/mL
- MIC, control [8]: 0.0313 µg/mL
- MIC [14]: 4 µg/mL
- MIC ([9]; GIM1.551, 18 h): 2 µg/mL
- MIC ([10]; CICC21634, 18 h): 4 µg/mL
- MIC ([11]; ATCC25923, 18 h): 0.0313 µg/mL
